Our source for the TGI values is PubChem BioAssay (NCI).

Experiment in all cases: NCI anticancer screen, dose series, 48 h
For experiment [1], the system named is EKVX NSCLC.
Experiment [2] relates to NCI-H23 lung.
Experiment [3] relates to HT29 colon.
For experiment [4], the system named is T-47D breast.
Experiment [5] has as its system HL-60(TB) leukemia.
Experiment [6] has as its system ACHN renal.
The test system of experiment [7] is M14 melanoma.
The subject of experiment [8] is A549 NSCLC.
For experiment [9], the system named is TK-10 renal.
Experiment [10] concerns A498 renal.

Each structure is given as a SMILES string.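 Dose response: 5 concentrations. Exposure: 48 h. Format: 96-well plates. Endpoint: linear interpolation; highest concentration if not reached. TGI marks complete inhibition of growth.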 A value given as a limit tells only on which side of the number the result lay.

In the case of `CN(C)Cc1cc(N=Nc2ccc(Cl)c(Cl)c2)ccc1O`, the TGI in experiment [1] was 25.6 µM; in experiment [2], 28.1 µM; in experiment [3], 20.4 µM; in [4], 23.2 µM; in experiment [5], 9.44 µM; in experiment [6] it was 16.2 µM. Moreover, the TGI in experiment [7] came out at 31.9 µM; in experiment [8] it was 27.5 µM; in [9], 22.9 µM; in experiment [10] it was 23.9 µM.

On to `Cc1ccc2c3c1O[C@H]1c4nc5ccccc5cc4C[C@@]4(O)[C@@H](C2)N(CC2CC2)CC[C@]314`, for which the TGI in experiment [1] worked out at 37.9 µM; in [2], 67.7 µM; in experiment [3], 16.7 µM; in [4], 32.2 µM; in experiment [5], 26.1 µM; in experiment [6], 23.4 µM. In addition, the TGI in [7] turned out to be 25.9 µM; in [8], 26.8 µM; in [9], 54.6 µM; in experiment [10] it was 30.7 µM.

As to `Cc1ccc2[nH]c(=O)c(-c3cnc(=O)[nH]n3)c(O)c2c1`, the TGI in experiment [1], in experiment [2], in experiment [3], in experiment [4], in [5] and in experiment [6] was above 100 µM each time. For the same compound, the TGI in experiment [7], in experiment [8], in experiment [9] and in experiment [10] was above 100 µM in each case.

For `N#CC(c1ccccc1)c1cccc2ccccc12` (stereo not drawn), the TGI in [1] was above 100 µM; in experiment [2], above 100 µM; in experiment [3] it was above 100 µM; in experiment [4], above 100 µM; in [5] it was 57.7 µM; in experiment [6], above 100 µM. The TGI in experiment [7] was 96.4 µM; in experiment [8], 65.1 µM; in experiment [9], above 100 µM; in experiment [10], 76.5 µM.

Regarding `CN(C)c1ccc(/C=C2\N=C(c3ccccc3)N(c3nc4c(Cl)cc(Cl)cc4s3)C2=O)cc1`, the TGI in [1], in experiment [3], in experiment [4], in experiment [5], in experiment [6] and in experiment [7] was above 100 µM each time. The TGI in experiment [8] was above 100 µM; in experiment [9] it was above 100 µM; in [10], 92.3 µM.

Regarding `O=C1/C(=C/c2cccs2)N=C(c2ccccc2)N1C1Nc2cc3c(cc2S1)NC(N1C(=O)/C(=C/c2cccs2)N=C1c1ccccc1)S3` (stereo not drawn), the TGI in experiment [1] was 43.6 µM; in experiment [2] it was 43.6 µM; in experiment [3] it was above 100 µM; in experiment [4], above 100 µM; in [5], 39.6 µM; in [6] it was above 100 µM. The TGI in [7] is 37.1 µM; in experiment [8] it was above 100 µM; in experiment [9], above 100 µM; in [10], above 100 µM.

In the case of `CN(C)Cc1cc(C(=O)O)cc(CN(C)C)c1O`, the TGI in [1], in experiment [2], in experiment [3], in experiment [4], in experiment [5] and in experiment [6] was above 100 µM each time. The TGI in [7], in experiment [8], in experiment [9] and in [10] was above 100 µM throughout.

On to `CC(C)n1c(=O)c2nn3c(=O)n(C(C)C)c(=O)c3nn2c1=O`, for which the TGI in experiment [1], in [2], in [3], in experiment [4], in experiment [5] and in experiment [6] was above 100 µM throughout. Moreover, the TGI in experiment [7], in experiment [8], in experiment [9] and in experiment [10] was above 100 µM throughout.

With `COc1ccc(N=C/C=C/Nc2ccc(OC)cc2)cc1`, the TGI is 30.6 µM in experiment [1]; 41.2 µM in [2]; 8.31 µM in [3]; 35.3 µM in experiment [4]; 8.45 µM in experiment [5]; 29 µM in experiment [6]. In addition, the TGI in experiment [7] is 23.2 µM; in [8], 25.2 µM; in [9] it was 27.4 µM; in experiment [10], 27.2 µM.

Regarding `CN(C)c1ccc(C(c2ccc(N(C)C)cc2)c2ccc([N+](=O)[O-])cc2)cc1`, the TGI in [1], in experiment [2], in [3], in [4], in [5] and in [6] was above 100 µM throughout. The TGI in experiment [7], in experiment [8], in experiment [9] and in [10] was above 100 µM throughout.

Turning to `CCCCCCCCCC[C@@H](O)[C@@H]1CC[C@@H]([C@@H]2CC[C@@H]([C@@H](O)CCCCCCCCCCC(O)CC3=CC(C)OC3=O)O2)O1` (stereo partly drawn), the TGI is above 10 µM in experiment [1]; above 10 µM in [3]; above 10 µM in [4]; 1.85 µM in experiment [5]; above 10 µM in experiment [6]; above 10 µM in [7]. The TGI in experiment [8], in experiment [9] and in [10] was above 10 µM each time.
